Experimental data: patent US11613556B2, “Oxysterols and methods of use thereof” (Sage Therapeutics, Inc., priority 2016, dated 2023)
Where two headings read alike, the source gives them in different places.

Experiments:
[1] = biological target: GluN2B glutamate receptors expressed in mammalian cells (Homo sapiens (Human), UniProt Q05586+Q13224); experiment: Whole-cell patch clamp of mammalian cells (Ionworks Barracuda), positive allosteric modulation, GluN2B; type: cell-based; details: for Emax: read-out: GluN2B PCA EMax (%)
Chain of GluN2B glutamate receptors expressed in mammalian cells (Q13224 27-1484, other chains not shown): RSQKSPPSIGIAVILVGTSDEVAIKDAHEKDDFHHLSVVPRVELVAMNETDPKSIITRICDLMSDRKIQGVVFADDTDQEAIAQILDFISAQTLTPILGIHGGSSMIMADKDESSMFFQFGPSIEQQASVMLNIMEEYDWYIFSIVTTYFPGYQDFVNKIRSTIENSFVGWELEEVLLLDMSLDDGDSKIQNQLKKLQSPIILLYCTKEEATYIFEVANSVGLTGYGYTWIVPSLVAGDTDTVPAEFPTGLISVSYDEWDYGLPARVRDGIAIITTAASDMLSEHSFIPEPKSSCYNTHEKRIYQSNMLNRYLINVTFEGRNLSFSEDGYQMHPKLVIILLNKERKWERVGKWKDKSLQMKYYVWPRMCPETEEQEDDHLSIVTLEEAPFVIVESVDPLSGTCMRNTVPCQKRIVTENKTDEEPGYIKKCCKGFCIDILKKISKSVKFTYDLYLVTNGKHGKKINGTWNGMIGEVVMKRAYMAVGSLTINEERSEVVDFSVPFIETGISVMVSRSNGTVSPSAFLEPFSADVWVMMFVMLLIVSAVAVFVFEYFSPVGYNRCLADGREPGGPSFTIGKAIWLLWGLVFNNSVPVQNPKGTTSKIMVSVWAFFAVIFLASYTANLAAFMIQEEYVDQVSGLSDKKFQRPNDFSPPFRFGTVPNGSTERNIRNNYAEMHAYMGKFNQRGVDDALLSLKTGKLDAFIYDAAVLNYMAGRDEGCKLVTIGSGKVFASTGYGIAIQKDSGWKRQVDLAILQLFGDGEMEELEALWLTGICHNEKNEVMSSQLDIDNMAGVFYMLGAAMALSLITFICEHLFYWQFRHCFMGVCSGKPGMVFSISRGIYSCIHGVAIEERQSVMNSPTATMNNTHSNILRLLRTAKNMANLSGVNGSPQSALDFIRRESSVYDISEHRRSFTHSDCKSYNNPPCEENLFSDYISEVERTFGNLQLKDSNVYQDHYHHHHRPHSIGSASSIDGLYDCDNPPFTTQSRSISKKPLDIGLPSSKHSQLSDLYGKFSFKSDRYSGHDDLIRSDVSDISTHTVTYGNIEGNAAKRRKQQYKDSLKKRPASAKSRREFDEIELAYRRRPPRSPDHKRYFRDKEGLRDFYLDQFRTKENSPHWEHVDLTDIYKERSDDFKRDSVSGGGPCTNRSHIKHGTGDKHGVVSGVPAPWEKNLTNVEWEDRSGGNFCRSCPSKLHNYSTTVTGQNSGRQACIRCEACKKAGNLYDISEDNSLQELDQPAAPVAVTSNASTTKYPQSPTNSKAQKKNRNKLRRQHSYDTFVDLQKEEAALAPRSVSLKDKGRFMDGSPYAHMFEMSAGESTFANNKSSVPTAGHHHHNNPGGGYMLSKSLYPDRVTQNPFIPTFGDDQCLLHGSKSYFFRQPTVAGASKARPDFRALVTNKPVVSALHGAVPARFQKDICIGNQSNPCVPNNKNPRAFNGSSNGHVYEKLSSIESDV
Description: (§1) NMDA potentiation in mammalian cells which expressed NMDA receptors was assessed using the automatic patch-clamp system can be used determine the NAM activity of compounds as described below. An whole cell patch-clamp system can be used determine the PAM activity of compounds as described below.
(§2) The measurements were performed using Ion Works Barracuda platform following this procedure:
(§3) Electrophysiological Procedures: • a) Intracellular solution (mM): 50 mM CsCl, 90 mM CsF, 2 mM MgCl2, 5 mM EGTA, 10 mM HEPES. Adjust to pH 7.2 with CsOH. • b) Extracellular solution, HB-PS (composition in mM): NaCl, 137; KCl, 1.0; CaCl2, 5; HEPES, 10; Glucose, 10; pH adjusted to 7.4 with NaOH (refrigerated until use). • c) Holding potential: −70 mV, potential during agonist/PAM application: −40 mV.
(§4) Recording Procedure: • a) Extracellular buffer will be loaded into the PPC plate wells (11 μL per well). Cell suspension will be pipetted into the wells (9 μL per well) of the PPC planar electrode. • b) Whole-cell recording configuration will be established via patch perforation with membrane currents recorded by on-board patch clamp amplifiers. • c) Two recordings (scans) will be performed. First, during pre-application of test article alone (duration of pre-application—5 min) and second, during test articles and agonist (EC20 L-glutamate and 30 μM glycine) co-application to detect positive modulatory effects of the test article.
(§5) Test Article Administration: The first pre-application will consist of the addition of 20 μL of 2× concentrated test article solution and, second, of 20 μL of 1× concentrated test article and agonist at 10 μL/s (2 second total application time).
(§6) Potentiating Effect of Positive Allosteric Modulators (PAM) on the Channel
(§7) The maximal amplitude of the evoked currents are measured and defined as Peak Current Amplitude (PCA).

[2] = biological target: GluN1/GluN2A glutamate receptors (human GRIN1/GRIN2A) expressed in HEK293 cells (Homo sapiens (Human), UniProt Q05586+Q12879); experiment: Whole-cell patch clamp of mammalian cells (Ionworks Barracuda), positive allosteric modulation, GluN1/GluN2A; type: cell-based; details: for Emax: read-out: GluN2A PCA EMax (%)
Chain of GluN1/GluN2A glutamate receptors (human GRIN1/GRIN2A) expressed in HEK293 cells (Q12879 whole entry, looked up, other chains not shown): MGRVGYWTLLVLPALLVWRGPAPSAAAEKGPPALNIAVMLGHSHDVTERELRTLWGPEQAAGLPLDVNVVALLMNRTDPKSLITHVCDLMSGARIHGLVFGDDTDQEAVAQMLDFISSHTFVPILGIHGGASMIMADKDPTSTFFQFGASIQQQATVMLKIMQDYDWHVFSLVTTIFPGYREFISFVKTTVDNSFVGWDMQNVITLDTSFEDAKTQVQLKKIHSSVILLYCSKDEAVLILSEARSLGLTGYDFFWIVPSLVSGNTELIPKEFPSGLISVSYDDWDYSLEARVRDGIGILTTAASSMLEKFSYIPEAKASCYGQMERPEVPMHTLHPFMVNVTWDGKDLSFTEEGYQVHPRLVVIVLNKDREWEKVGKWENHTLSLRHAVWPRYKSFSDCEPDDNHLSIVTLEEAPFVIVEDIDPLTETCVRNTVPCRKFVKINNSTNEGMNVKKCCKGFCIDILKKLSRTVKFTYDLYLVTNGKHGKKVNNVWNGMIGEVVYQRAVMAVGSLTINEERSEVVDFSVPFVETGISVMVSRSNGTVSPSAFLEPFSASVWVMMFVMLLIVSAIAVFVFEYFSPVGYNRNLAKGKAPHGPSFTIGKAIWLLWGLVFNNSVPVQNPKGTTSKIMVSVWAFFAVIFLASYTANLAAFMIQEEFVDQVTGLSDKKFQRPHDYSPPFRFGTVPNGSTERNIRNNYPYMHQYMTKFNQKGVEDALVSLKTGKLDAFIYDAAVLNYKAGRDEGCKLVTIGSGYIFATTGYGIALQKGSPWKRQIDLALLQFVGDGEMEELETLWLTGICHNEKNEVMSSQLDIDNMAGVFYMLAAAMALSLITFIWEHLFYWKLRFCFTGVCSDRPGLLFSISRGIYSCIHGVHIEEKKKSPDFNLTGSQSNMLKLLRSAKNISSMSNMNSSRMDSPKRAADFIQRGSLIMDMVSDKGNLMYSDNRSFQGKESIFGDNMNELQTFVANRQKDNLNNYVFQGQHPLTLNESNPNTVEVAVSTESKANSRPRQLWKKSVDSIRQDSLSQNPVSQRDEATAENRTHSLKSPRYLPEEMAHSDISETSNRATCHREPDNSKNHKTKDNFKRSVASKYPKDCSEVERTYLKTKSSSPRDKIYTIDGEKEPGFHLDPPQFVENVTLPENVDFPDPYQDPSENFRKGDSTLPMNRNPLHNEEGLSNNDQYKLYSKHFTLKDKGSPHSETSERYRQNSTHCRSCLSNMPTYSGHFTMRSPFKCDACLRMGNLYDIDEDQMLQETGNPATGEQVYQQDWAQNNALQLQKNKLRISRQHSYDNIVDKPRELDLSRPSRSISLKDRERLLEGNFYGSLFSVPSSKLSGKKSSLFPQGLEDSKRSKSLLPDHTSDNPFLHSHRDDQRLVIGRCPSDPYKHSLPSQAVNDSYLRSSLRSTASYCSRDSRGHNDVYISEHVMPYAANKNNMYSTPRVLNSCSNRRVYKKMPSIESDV
Description: as §1, §2, §3, §4, §5, §6, §7

[3] = peak current amplitude, co-application with EC20 L-glutamate and 30 μM glycine, read-out: GluN2B PCA EC50
[4] = peak current amplitude, co-application with EC20 L-glutamate and 30 μM glycine
[5] = peak current amplitude, co-application with EC20 L-glutamate and 30 μM glycine, HEK293
[6] = peak current amplitude, co-application with EC20 L-glutamate and 30 μM glycine, HEK293, read-out: GluN2A PCA EC50

Row | SMILES | EC50 [1, 3] | Emax [1, 4] | EC50 [2] | Emax [2, 5] | EC50 [1] | Emax [1] | EC50 [2, 6]
1 | CC[C@]1(O)CC[C@H]2C(=CC[C@@H]3[C@@H]2CC[C@]2(C)[C@@H]([C@H](C)[C@H](O)CCC(C)C)CC[C@@H]32)C1 [Compound 3, (3S,8R,9S,10R,13S,14S,17R)-3-ethyl-17-((2S,3R)-3-hydroxy-6-methylheptan-2-yl)-13-methyl-2,3,4,7,8,9,10,11,12,13,14,15,16,17-tetradecahydro-1H-cyclopenta[a]phenanthren-3-ol] | > 1 µM | < 100% | > 1 µM | < 100% |  |  | 
2 | C[C@H]([C@H](O)C[C@H](O)c1ccccc1)[C@H]1CC[C@H]2[C@@H]3CC[C@H]4C[C@](O)(C(F)(F)F)CC[C@]4(C)[C@H]3CC[C@]12C [Compound 13, (1S,3R,4S)-4-((3S,5S,8R,9S,10S,13S,14S,17R)-3-hydroxy-10,13-dimethyl-3-(trifluoromethyl)hexadecahydro-1H-cyclopenta[a]phenanthren-17-yl)-1-phenylpentane-1,3-diol] |  |  |  | < 100% | 0.001 to 0.1 µM | 100 to 500% | 0.001 to 0.1 µM
3 | CC[C@]1(O)CC[C@@]2(C)[C@@H](CC[C@@H]3[C@@H]2CC[C@]2(C)[C@@H]([C@H](C)[C@H](O)CCC(C)C)CC[C@@H]32)C1 [Compound 24, (3S,5S,8R,9S,10S,13S,14S,17R)-3-ethyl-17-((2S,3R)-3-hydroxy-6-methylheptan-2-yl)-10,13-dimethylhexadecahydro-1H-cyclopenta[a]phenanthren-3-ol] |  |  |  | < 100% | > 1 µM | < 100% | > 1 µM
4 | C[C@@H]([C@H]1CC[C@H]2[C@@H]3CC[C@H]4C[C@](O)(C(F)(F)F)CC[C@]4(C)[C@H]3CC[C@]12C)[C@@H](O)C[C@H](O)c1ccccc1 [Compound 25, (1S,3S,4S)-4-((3S,5S,8R,9S,10S,13S,14S,17R)-3-hydroxy-10,13-dimethyl-3-(trifluoromethyl)hexadecahydro-1H-cyclopenta[a]phenanthren-17-yl)-1-phenylpentane-1,3-diol] |  |  |  | < 100% | > 1 µM | < 100% | > 1 µM
5 | CC[C@]1(O)CC[C@H]2[C@@H](CC[C@@H]3[C@@H]2CC[C@]2(C)[C@@H]([C@H](C)[C@@H](O)CCC(C)C)CC[C@@H]32)C1 [Compound 28, (3S,5S,8R,9R,10S,13S,14S,17R)-3-ethyl-17-((2S,3S)-3-hydroxy-6-methylheptan-2-yl)-13-methylhexadecahydro-1H-cyclopenta[a]phenanthren-3-ol] | > 1 µM | 100 to 500% | > 1 µM | < 100% |  |  | 
6 | CC[C@]1(O)CC[C@@]2(C)[C@@H](CC[C@@H]3[C@@H]2CC[C@]2(C)[C@@H]([C@H](C)[C@@H](O)CCC(C)C)CC[C@@H]32)C1 [Compound 29, (3S,5S,8R,9S,10S,13S,14S,17R)-3-ethyl-17-((2S,3S)-3-hydroxy-6-methylheptan-2-yl)-10,13-dimethylhexadecahydro-1H-cyclopenta[a]phenanthren-3-ol] |  |  |  | < 100% | > 1 µM | < 100% | > 1 µM
7 | CC(C)CC[C@@H](O)[C@@H](C)[C@H]1CC[C@H]2[C@@H]3CC=C4C[C@@](C)(O)CC[C@]4(C)[C@H]3CC[C@]12C [Compound 30, (3S,8S,9S,10R,13S,14S,17R)-17-((2S,3R)-3-hydroxy-6-methylheptan-2-yl)-3,10,13-trimethyl-2,3,4,7,8,9,10,11,12,13,14,15,16,17-tetradecahydro-1H-cyclopenta[a]phenanthren-3-ol] | > 1 µM | 100 to 500% | > 1 µM | 100 to 500% |  |  | 
